From patent US8916567B2, “Certain crystalline hydrates, pharmaceutical compositions thereof and methods for preparation and use thereof” (Universal Technology Alliance, Inc., priority 2009, dated 2014)

Tests used:
E. feacium = experiment: Minimum inhibitory concentration (MIC) in vitro, agar dilution method; type: cell-based; conditions: hydrate
Summary of the method: (§1)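 Isolates from patients in Sichuan and Beijing areas. Method: agar dilution per CLSI/NCCLS. Values: MIC, with MIC50 and MIC90 inhibiting 50% and 90% of strains.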

S. epidermidis MRSE = experiment: as above; type: cell-based; conditions: hydrate
Summary of the method: as §1

S. epidermidis MSSE = experiment: as above; type: cell-based; conditions: hydrate
Summary of the method: as §1

[1] = tested on: Staphylococcus aureus MRSA; experiment: as above; type: cell-based; conditions: hydrate
Summary of the method: as §1

E. feacalis = experiment: as above; type: cell-based; conditions: hydrate
Summary of the method: as §1

[2] = tested on: Staphylococcus aureus MSSA; experiment: as above; type: cell-based; conditions: hydrate
Summary of the method: as §1

Staphylococcus aureus = experiment: Minimum inhibitory concentration (MIC) in vitro, agar dilution method, quality control strain; type: cell-based; conditions: strain S. AT C C25923 (Table 7 No. 1); hydrate
Source text: Hydrates Samples: • The 1/2 hydrates prepared according to Example 2; • Content (purity % wt): 99.0%; • The 1/12 hydrates prepared according to Example 253; • Content (purity % wt): 98.9%; • The 2/7 hydrates prepared according to Example 106; • Content (purity % wt): 98.8%; • The 2/5 hydrates prepared according to Example 162; • Content (purity % wt): 99.0%; • The 3/4 hydrates prepared according to Example 337; • Content (purity % wt): 98.8%; • Preparation: dissolved in DMSO, and further diluted with sterile distilled water to desired concentration. • The hydrates samples were supplied by Sichuan Beilike Biotechnology LTD.
Anhydrous Sample: • The anhydrous compounds prepared according to Example 1. • Content (purity % wt): 98.6%; • Preparation: dissolved in DMSO, and further diluted with sterile distilled water to desired concentration; • The anhydrous sample was supplied by Sichuan Beilike Biotechnology LTD.
Control Samples • Vancomycin: provided by Sichuan Beilike Biotechnology LTD, purchased from Eli Lilly Japan K.K. • Lot No.: WM16151 (production date: Apr. 10, 2007, expiration date: Apr. 9, 2009). • Specification: 500 mg/bottle; solubility (physicochemical properties): soluble in water. • Linezolid (LZ): provided by Sichuan Beilike Biotechnology LTD.
Bacteria Strains • Clinically isolated strains: clinically isolated bacterial pathogens collected in Sichuan and Beijing areas from March 2007 to May 2008. • Species include: Staphylococcus aureus MRSA, Staphylococcus aureus MSSA, S. epidermidis MRSE, S. epidermidis MSSE, E. feacalis, and E. feacium, a total of 51 strains. • Quality control strains: Staphylococcus aureus […] strain kept in Sichuan Industrial Institute of Antibiotics, purchased from the medical testing center of the Ministry of Health, China.
Experimental Method: • Measurement of the minimum inhibitory concentration (MIC) in vitro: • The minimum inhibitory concentration (MIC) of each test sample against test strains was measured by using the agar dilution method recommended by the U.S. National Committee for Clinical Laboratory Standards (CLSI/NCCIs).
Based on the CLSI/NCCL's testing standard with respect to vancomycin and linezolid (see Table 6), the minimum inhibitory concentration (MIC) values of every strain were reported, and the MIC50 (the concentration that inhibits 50% of the different strains of bacteria), MIC90 (the concentration that inhibits 90% of the different strains of bacteria), and MICrange (the range of the MIC value of the tested strains) were observed.

[3] = Stability under high temperature and high humidity (relative humidity 75%, 40° C.); type: physicochemical; conditions: for Related substances (%): HPLC; for TGA (%): hydrate
Description: In order to further evaluate the effect of temperature, humidity and light on the quality of the crystalline compounds of the present disclosure, the hydrates were placed in a dessicator with a relative humidity of 75% and at a constant temperature of 40° C. The samples were then collected at 1, 2, 3, and 6 months. Results are shown in Tables 10-14, wherein the “related substances” mean all of the ingredients in a sample except the active material. The content of the related substances in a sample was measure by HPLC in accordance to the Chinese Pharmacopeia (2005 edition, Part II, Appendix V D).

[4] = E. feacium (5 strains), clinically isolated
[5] = S. ep MRSE (10 strains), clinically isolated
[6] = S. ep MSSE (10 strains), clinically isolated
[7] = S. MRSA (10 strains), clinically isolated
[8] = E. feacalis (5 strains), clinically isolated
[9] = S. MSSA (11 strains), clinically isolated

CC(=O)NC[C@H]1CN(c2ccc(N3CCN(c4ccccc4)CC3)c(F)c2)C(=O)O1 [1/12 hydrate, (S)—[N-3-(3′-fluoro-4′-(4″-phenylpiperazinyl))phenyl-2-oxo-5-oxazolidinyl]methyl acetamide 1/12 hydrate]
MIC50 (E. feacium; [4]): 0.5 µg/mL | MIC90 (E. feacium; [4]): 1 µg/mL | MICrange (E. feacium; [4]): 0.25 to 1 µg/mL | MIC (E. feacium; strain Efm 98 (Table 8 No. 21)): 0.25 µg/mL | MIC (E. feacium; strain Efm 171 (Table 8 No. 25)): 0.5 µg/mL | MIC (E. feacium; strain Efm 197 (Table 8 No. 22)): 0.5 µg/mL | MIC (E. feacium; strain Efm N3 (Table 8 No. 23)): 1 µg/mL | MIC (E. feacium; strain Efm N4 (Table 8 No. 24)): 0.5 µg/mL | MIC50 (S. epidermidis MRSE; [5]): 0.25 µg/mL | MIC90 (S. epidermidis MRSE; [5]): 0.5 µg/mL | MICrange (S. epidermidis MRSE; [5]): 0.06 to 0.5 µg/mL | MIC (S. epidermidis MRSE; strain S. ep MRSE4 (Table 8 No. 9)): 0.125 µg/mL | MIC (S. epidermidis MRSE; strain S. ep MRSE20 (Table 8 No. 6)): 0.25 µg/mL | MIC (S. epidermidis MRSE; strain S. ep MRSE87 (Table 8 No. 13)): 0.25 µg/mL | MIC (S. epidermidis MRSE; strain S. ep MRSE90 (Table 8 No. 10)): 0.125 µg/mL | MIC (S. epidermidis MRSE; strain S. ep MRSE101 (Table 8 No. 7)): 0.06 µg/mL | MIC (S. epidermidis MRSE; strain S. ep MRSE105 (Table 8 No. 11)): 0.25 µg/mL | MIC (S. epidermidis MRSE; strain S. ep MRSE140 (Table 8 No. 14)): 0.5 µg/mL | MIC (S. epidermidis MRSE; strain S. ep MRSE142 (Table 8 No. 12)): 0.25 µg/mL | MIC (S. epidermidis MRSE; strain S. ep MRSE210 (Table 8 No. 15)): 0.25 µg/mL | MIC (S. epidermidis MRSE; strain S. ep MRSE211 (Table 8 No. 8)): 0.25 µg/mL | MIC50 (S. epidermidis MSSE; [6]): 0.25 µg/mL | MIC90 (S. epidermidis MSSE; [6]): 0.5 µg/mL | MICrange (S. epidermidis MSSE; [6]): 0.125 to 0.5 µg/mL | MIC (S. epidermidis MSSE; strain S. ep MSSE87 (Table 7 No. 23)): 0.125 µg/mL | MIC (S. epidermidis MSSE; strain S. ep MSSE88 (Table 8 No. 5)): 0.5 µg/mL | MIC (S. epidermidis MSSE; strain S. ep MSSE113 (Table 7 No. 24)): 0.25 µg/mL | MIC (S. epidermidis MSSE; strain S. ep MSSE116 (Table 7 No. 25)): 0.125 µg/mL | MIC (S. epidermidis MSSE; strain S. ep MSSE118 (Table 8 No. 2)): 0.5 µg/mL | MIC (S. epidermidis MSSE; strain S. ep MSSE119 (Table 7 No. 27)): 0.125 µg/mL | MIC (S. epidermidis MSSE; strain S. ep MSSE137 (Table 8 No. 4)): 0.5 µg/mL | MIC (S. epidermidis MSSE; strain S. ep MSSE140 (Table 8 No. 3)): 0.5 µg/mL | MIC (S. epidermidis MSSE; strain S. ep MSSE142 (Table 7 No. 26)): 0.5 µg/mL | MIC (S. epidermidis MSSE; strain S. ep MSSE153 (Table 8 No. 1)): 0.5 µg/mL | MIC50 [1, 7]: 0.5 µg/mL | MIC90 [1, 7]: 0.5 µg/mL | MICrange [1, 7]: 0.25 to 0.5 µg/mL | MIC ([1]; strain S. MRSA 29 (Table 7 No. 15)): 1 µg/mL | MIC ([1]; strain S. MRSA 101 (Table 7 No. 14)): 0.5 µg/mL | MIC ([1]; strain S. MRSA 201 (Table 7 No. 13)): 0.5 µg/mL | MIC ([1]; strain S. MRSA B27 (Table 7 No. 21)): 0.5 µg/mL | MIC ([1]; strain S. MRSA B105 (Table 7 No. 17)): 0.5 µg/mL | MIC ([1]; strain S. MRSA B143 (Table 7 No. 19)): 0.5 µg/mL | MIC ([1]; strain S. MRSA B151 (Table 7 No. 20)): 0.5 µg/mL | MIC ([1]; strain S. MRSA B164 (Table 7 No. 16)): 0.5 µg/mL | MIC ([1]; strain S. MRSA B199 (Table 7 No. 22)): 1 µg/mL | MIC ([1]; strain S. MRSA B617 (Table 7 No. 18)): 0.25 µg/mL | MIC50 (E. feacalis; [8]): 0.125 µg/mL | MIC90 (E. feacalis; [8]): 0.25 µg/mL | MICrange (E. feacalis; [8]): 0.06 to 0.25 µg/mL | MIC (E. feacalis; strain Efa 116 (Table 8 No. 16)): 0.25 µg/mL | MIC (E. feacalis; strain Efa 907 (Table 8 No. 19)): 0.06 µg/mL | MIC50 [2, 9]: 0.5 µg/mL | MIC90 [2, 9]: 0.5 µg/mL | MICrange [2, 9]: 0.25 to 0.5 µg/mL | MIC ([2]; strain S. MSSA 123 (Table 7 No. 3)): 0.5 µg/mL | MIC ([2]; strain S. MSSA 187 (Table 7 No. 7)): 0.5 µg/mL | MIC ([2]; strain S. MSSA 195 (Table 7 No. 6)): 0.5 µg/mL | MIC ([2]; strain S. MSSA 195 (Table 7 No. 12)): 0.5 µg/mL | MIC ([2]; strain S. MSSA 201 (Table 7 No. 11)): 0.25 µg/mL | MIC ([2]; strain S. MSSA 232 (Table 7 No. 2)): 0.5 µg/mL | MIC ([2]; strain S. MSSA 275 (Table 7 No. 10)): 1 µg/mL | MIC ([2]; strain S. MSSA 466 (Table 7 No. 8)): 0.25 µg/mL | MIC ([2]; strain S. MSSA 519 (Table 7 No. 9)): 0.5 µg/mL | MIC ([2]; strain S. MSSA 520 (Table 7 No. 4)): 0.5 µg/mL | MIC ([2]; strain S. MSSA 580 (Table 7 No. 5)): 0.25 µg/mL | MIC (Staphylococcus aureus): 0.5 µg/mL | Characters ([3]; 0 month): White powder | Related substances (%) ([3]; 0 month): 0.94% | TGA (%) ([3]; 0 month): 0.40% | Characters ([3]; 1 month): White powder | Related substances (%) ([3]; 1 month): 0.88% | TGA (%) ([3]; 1 month): 0.38% | Characters ([3]; 2 months): White powder | Related substances (%) ([3]; 2 months): 0.90% | TGA (%) ([3]; 2 months): 0.39% | Characters ([3]; 3 months): White powder | Related substances (%) ([3]; 3 months): 0.92% | TGA (%) ([3]; 3 months): 0.40% | Characters ([3]; 6 months): White powder | Related substances (%) ([3]; 6 months): 0.93% | TGA (%) ([3]; 6 months): 0.42%
